{"source": "patent US12371664B2", "about": "“Medium for direct differentiation of pluripotent stem cell-derived mesenchymal stem cell, method for preparing mesenchymal stem cell by using same, and mesenchymal stem cell prepared thereby” (CHA BIOTECH CO., LTD., priority 2018, dated 2025)", "key": {"[1]": {"test_system": "transcription factor required for endodermal differentiation / mesodermal differentiation", "conditions": "background art; cited from earlier work"}, "[2]": {"test_system": "human embryonic stem cells", "experiment": "Analysis of cytomorphological features (spindle shape) under a phase-contrast microscope", "type": "cell-based", "conditions": "FIG. 10; 10 μM RS1, 10 μM Y27632, 1 μM SB431542 as applicable", "excerpt": "For analysis of cytomorphological features of mesenchymal stem cells obtained in Example 1 and Comparative Example 1, a mesenchymal stem cell-specific proliferation pattern (spindle shape) was identified under a phase-contrast microscope (Nikon TE-2000), and the results are shown in FIGS. 2 and 3, respectively.\nFor analysis of cytomorphological difference by treatment with the DNA repair agent or the ROCK inhibitor alone on the basis of period, morphologies of cells of Example 1 and Comparative Examples 2 and 3 were analyzed in the same manner as in Experimental Example 1. As a control, cells treated with the TGF-β inhibitor SB431542 alone without being treated with both the DNA repair agent and the ROCK inhibitor were used, and the results are shown in FIG. 10."}}}
{"compound": "NC(=O)c1ccc(-c2nc(-c3ccc4c(c3)OCO4)c(-c3ccccn3)[nH]2)cc1.O", "note": "[SB431542, 4-[4-(1,3-benzodioxol-5-yl)-5-(2-pyridinyl)-1H-imidazol-2-yl]-benzamide hydrate]", "values": [{"measurement": "concentration having effects on inhibiting the transcription factor for endodermal differentiation and increasing that for mesodermal differentiation", "setting": "[1]", "result": "≥ 1", "unit": "µM"}, {"measurement": "cytomorphological observation (mesenchymal stem cell proliferation pattern of the spindle shape)", "setting": "[2]", "result": "most of the cells disappeared on the 30th day and uniformity deteriorated"}]}
